{"source": "patent US20240016938A1", "about": "“METHODS FOR INCREASING THE BIOAVAILABILITY OF NUCLEOSIDE MEDICINAL AGENTS” (ZOGENIX MDS, INC., priority 2022, published 2024)", "origin": "cited, not measured here", "conditions": "600-mg oral dose; food intake immediately before oral dosing; cited from earlier work"}
{"smiles": "Cc1cn([C@@H]2C[C@@H](O)[C@H](CO)O2)c(=O)[nH]c1=O", "note": "[telbivudine, 3-L-2-deoxythymidine]", "values": [{"measurement": "absorption as measured by Cmax, Tmax, AUC(0-t), and AUC(0-infinity), fed vs fasting", "value": "not altered by food intake"}]}
